Assay results reported in patent US20040176431A1, “Antiproliferative 2-(sulfo-phenyl)-aminothiazole derivatives and pharmaceutical compositions, and methods for their use” (Pfizer, Inc., priority 2003, published 2004).

Biological target: T1, CDK4/cyclin D3 (Homo sapiens, UniProt P11802)
T1 construct: made in house; host or cells: insect cells (baculovirus co-infection)
Assay: Inhibition of CDK4/Cyclin D retinoblastoma kinase activity
Format: biochemical
Details: for inhibition at 0.1 µM: test compound at 0.1 μM, read-out: % Inhib CDK4/D @ 0.1 μM; for inhibition at 1 µM: test compound at 1 μM (head line shifted: 'mM' printed beside 'Structure'), read-out: % Inhib CDK4/D @ 1 μM; for inhibition at 0.03 µM: test compound at 0.03 (unit cell empty, head line shifted; μM), read-out: % Inhib CDK4/D @ 0.03
Protocol: Cyclin-dependent kinase activity was measured by quantifying the enzyme-catalyzed, time-dependent incorporation of radioactive phosphate from [^32P]ATP or [^33P]ATP into a protein substrate. Unless noted otherwise, assays were performed in 96-well plates in a total volume of 50 μL, in the presence of 10 mM HEPES (N-[2-hydroxyethyl]piperazine-N′-[2-ethanesulfonic acid]) (pH 7.4), 10 mM MgCl2, 25 μM adenosine triphosphate (ATP), 1 mg/mL ovalbumin, 5 μg/mL leupeptin, 1 mM dithiothreitol, 10 mM β-glycerophosphate, 0.1 mM sodium vanadate, 1 mM sodium fluoride, 2.5 mM ethylene glycol-bis(β-aminoethyl ether)-N,N,N′N′-tetraacetic acid (EGTA), 2% (v/v) dimethylsulfoxide, and 0.03-0.4 μCi [^32/33P]ATP per reaction. Reactions were initiated with enzyme, incubated at 30° C., and terminated after 20 minutes by the addition of ethylenediaminetetraacetic acid (EDTA) to 250 mM. The phosphorylated substrate was then captured on a nitrocellulose or phosphocellulose membrane using a 96-well filtration manifold, and unincorporated radioactivity was removed by repeated washing with 0.85% phosphoric acid. Radioactivity was quantified by exposing the dried membranes to a phosphorimager.
Inhibition was measured relative to control wells that contained all reaction components including 2% (v/v) DMSO but no compound, after subtraction of background radioactivity measured in the absence of enzyme. Apparent Ki values of discrete compounds were measured by assaying enzyme activity in the presence of different inhibitor compound concentrations and subtracting the background radioactivity measured in the absence of enzyme. The kinetic parameters (kcat, Km for ATP) were measured for each enzyme under the usual assay conditions by determining the dependence of initial rates on ATP concentration. Inhibition data were fit to an equation for competitive inhibition using Kaleidagraph (Synergy Software), or were fit to an equation for competitive tight-binding inhibition using the software KineTic (BioKin, Ltd.).
A complex of human CDK4 and genetically truncated (1-264) cyclin D3 was purified using traditional biochemical chromatographic techniques from insect cells that had been co-infected with the corresponding baculovirus expression vectors (see e.g., Meijer and Kim, “Chemical Inhibitors of Cyclin-Dependent Kinases,” Methods in Enzymol., 283, 113-128 (1997)). The enzyme complex (5 nM) was assayed with 0.3-0.5 μg of purified recombinant retinoblastoma protein fragment (Rb) as a substrate. The engineered Rb fragment (residues 386-928 of the native retinoblastoma protein; 62.3 kDa) contains the majority of the phosphorylation sites found in the native 106-kDa protein, as well as a tag of six histidine residues for ease of purification. Phosphorylated Rb substrate was captured by microfiltration on a nitrocellulose membrane and quantified using a phosphorimager as described above. For measurement of tight-binding inhibitors, the assay duration was extended to 60 minutes, during which the time-dependence of product formation was linear and initial rate conditions were met.

T1 sequence (P11802 whole entry): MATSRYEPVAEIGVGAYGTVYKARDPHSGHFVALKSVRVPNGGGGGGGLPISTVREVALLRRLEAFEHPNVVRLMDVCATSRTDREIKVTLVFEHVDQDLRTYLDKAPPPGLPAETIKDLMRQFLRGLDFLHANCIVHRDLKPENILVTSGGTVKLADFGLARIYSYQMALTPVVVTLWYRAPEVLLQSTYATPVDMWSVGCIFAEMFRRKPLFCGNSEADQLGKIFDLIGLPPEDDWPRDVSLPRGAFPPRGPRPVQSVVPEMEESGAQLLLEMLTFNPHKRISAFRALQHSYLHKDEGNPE
T1 sequence (P30281 1-264 partner limits assumed): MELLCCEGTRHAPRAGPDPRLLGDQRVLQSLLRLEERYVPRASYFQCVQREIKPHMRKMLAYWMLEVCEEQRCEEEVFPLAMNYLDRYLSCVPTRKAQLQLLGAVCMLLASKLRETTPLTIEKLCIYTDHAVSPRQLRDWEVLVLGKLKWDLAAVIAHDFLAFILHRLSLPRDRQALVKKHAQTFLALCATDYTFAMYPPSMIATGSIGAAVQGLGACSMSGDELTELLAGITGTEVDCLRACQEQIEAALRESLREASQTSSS

| Compound | inhibition at 0.1 µM [%] | inhibition at 1 µM [%] | inhibition at 0.03 µM [%] |
| --- | --- | --- | --- |
| CCN(CC)C(=O)CSc1ccc(Nc2nc(N)c(C(=O)c3c(Cl)cccc3Cl)s2)cc1 [DD(1)] | -19 | 46.9 | -34 |
| Cc1noc(C)c1CSc1ccc(Nc2nc(N)c(C(=O)c3c(Cl)cccc3Cl)s2)cc1 [DD(2)] | 19 | 74 | 37 |
| CC(CSc1ccc(Nc2nc(N)c(C(=O)c3c(Cl)cccc3Cl)s2)cc1)CN(C)C (stereo not drawn) [DD(3)] | 0.2 | 43.6 | 8.1 |
| COC(=O)/C=C/CSc1ccc(Nc2nc(N)c(C(=O)c3c(Cl)cccc3Cl)s2)cc1 [DD(4)] | 11 | 49.1 | 5.4 |
| Nc1nc(Nc2ccc(SCCCO)cc2)sc1C(=O)c1c(Cl)cccc1Cl [DD(5)] | 40 | 85.2 | 21 |
| C=CCCSc1ccc(Nc2nc(N)c(C(=O)c3c(Cl)cccc3Cl)s2)cc1 [DD(6)] | 20 | 48 | 22 |
| Nc1nc(Nc2ccc(SCCN3CCCC3)cc2)sc1C(=O)c1c(Cl)cccc1Cl [DD(7)] | 31 | 55 | 11 |
| Nc1nc(Nc2ccc(SCc3ncon3)cc2)sc1C(=O)c1c(Cl)cccc1Cl [DD(8)] | 43 | 82.1 | 16 |
| Nc1nc(Nc2ccc(SCC3CNC(=O)O3)cc2)sc1C(=O)c1c(Cl)cccc1Cl (stereo not drawn) [DD(9)] | -14 | 40.3 | -28 |
| CN(C)CCCSc1ccc(Nc2nc(N)c(C(=O)c3c(Cl)cccc3Cl)s2)cc1 [DD(10)] | 6.6 | 54.5 | 2.6 |
| Nc1nc(Nc2ccc(SCCN3CCCCC3)cc2)sc1C(=O)c1c(Cl)cccc1Cl [DD(11)] | 28 | 78.1 | 4.2 |
| Nc1nc(Nc2ccc(SCC3CO3)cc2)sc1C(=O)c1c(Cl)cccc1Cl (stereo not drawn) [DD(12)] | 19 | 72 | 3.9 |
| CC(C)CCSc1ccc(Nc2nc(N)c(C(=O)c3c(Cl)cccc3Cl)s2)cc1 [DD(13)] | 4.7 | 35.3 | 0.6 |

Other lines, results leading:

| inhibition at 0.1 µM [%] | inhibition at 1 µM [%] | inhibition at 0.03 µM [%] | Compound |
| --- | --- | --- | --- |
| 41 | 80 | 18 | COCCSc1ccc(Nc2nc(N)c(C(=O)c3c(Cl)cccc3Cl)s2)cc1 [DD(14)] |
| 53 | 82 | 38 | Nc1nc(Nc2ccc(SCC(=O)Nc3ccccc3)cc2)sc1C(=O)c1c(Cl)cccc1Cl [DD(15)] |
| -7 | 56.2 | -9.4 | Nc1nc(Nc2ccc(SCC3CC3)cc2)sc1C(=O)c1c(Cl)cccc1Cl [DD(16)] |
| -3 | 28.3 | -9.5 | COc1cccc(CSc2ccc(Nc3nc(N)c(C(=O)c4c(Cl)cccc4Cl)s3)cc2)c1 [DD(17)] |
| 9.9 | 70.6 | 10 | Nc1nc(Nc2ccc(SCC3CCCO3)cc2)sc1C(=O)c1c(Cl)cccc1Cl (stereo not drawn) [DD(18)] |
| 19 | 82.9 | -3 | CN1CCCC1CCSc1ccc(Nc2nc(N)c(C(=O)c3c(Cl)cccc3Cl)s2)cc1 (stereo not drawn) [DD(19)] |
| 6.8 | 68.2 | 4.2 | CC1(CSc2ccc(Nc3nc(N)c(C(=O)c4c(Cl)cccc4Cl)s3)cc2)CO1 (stereo not drawn) [DD(20)] |
| 67 | 85.5 | 50 | NC(=O)CSc1ccc(Nc2nc(N)c(C(=O)c3c(Cl)cccc3Cl)s2)cc1 [DD(21)] |
| 9.1 | 56.2 | 8.1 | CCOC(=O)CCSc1ccc(Nc2nc(N)c(C(=O)c3c(Cl)cccc3Cl)s2)cc1 [DD(22)] |
